{"source": "patent US20170280720A1", "about": "“ARGININE […] INHIBITORS AND USES THEREOF” (EPIZYME, INC., priority 2014, published 2017)"}
{"target": "T1, Human CARM1 (PRMT4) (Homo sapiens, UniProt Q86X55)", "T1 construct": "Flag-CARM1-His; made in house; host or cells: HEK 293F cells (BacMam baculovirus, pFastBacMam)", "T1 sequence (Q86X55 2-585 isoform Q86X55-1)": "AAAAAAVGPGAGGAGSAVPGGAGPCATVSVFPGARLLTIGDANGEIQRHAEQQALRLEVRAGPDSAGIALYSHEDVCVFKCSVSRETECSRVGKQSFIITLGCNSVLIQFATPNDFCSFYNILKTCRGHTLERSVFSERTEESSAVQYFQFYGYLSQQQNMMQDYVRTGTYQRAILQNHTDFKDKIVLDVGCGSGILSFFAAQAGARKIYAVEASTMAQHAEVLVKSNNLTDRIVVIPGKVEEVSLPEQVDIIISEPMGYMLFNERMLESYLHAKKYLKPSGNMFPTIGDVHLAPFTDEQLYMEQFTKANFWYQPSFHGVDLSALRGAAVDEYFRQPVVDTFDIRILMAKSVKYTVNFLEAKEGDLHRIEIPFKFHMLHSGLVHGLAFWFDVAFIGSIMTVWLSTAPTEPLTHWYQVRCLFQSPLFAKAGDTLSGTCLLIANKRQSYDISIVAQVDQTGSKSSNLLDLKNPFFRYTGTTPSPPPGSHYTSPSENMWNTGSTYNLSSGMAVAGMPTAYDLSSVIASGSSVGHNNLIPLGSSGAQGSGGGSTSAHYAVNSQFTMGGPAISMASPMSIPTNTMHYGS", "assay": "CARM1 biochemical assay (3H-SAM Flashplate, peptide substrate)", "details": "read-out: CARM1_ IC50", "in_short": "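FLAG/His-tagged human CARM1 (isoform 1, Δ539-561, baculovirus-expressed), 0.25 nM, preincubated 30 min at room temperature with compound (2% DMSO) in 20 mM Bicine pH 7.6, then reacted with 30 nM 3H-SAM and 250 nM biotinylated H3 16-30 peptide (R26 monomethyl). Stopped with 300 uM cold SAM; labelled peptide captured on streptavidin Flashplate; % inhibition versus DMSO and 1 mM SAH controls fitted to a 4- or 3-parameter curve.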", "units": {"IC50": "µM"}}
{"smiles": "Cc1cccc(CCn2cnc3ccc(-c4ccc(CNCCN)cc4)cc32)c1", "note": "[Compound 143]", "IC50": 5.62}
{"smiles": "COc1cccc(CNC(=O)c2cncc(-c3ccc(CNCCN)cc3)c2)c1", "note": "[Compound 356]", "IC50": 24.3}
{"smiles": "CNC(=O)Nc1cc(-c2cccc(CN(C)CCN)c2)nc2c1cnn2C(C)C", "note": "[Compound 126]", "IC50": 0.00796}
{"smiles": "CC(C)n1ncc2c(C(=O)NCc3ccncc3)cc(-c3cccc(CNCCN)c3)nc21", "note": "[Compound 150]", "IC50": 0.274}
{"smiles": "CNCCN(C)Cc1cccc(-c2ccc3ncn(C(C)C)c3c2)c1", "note": "[Compound 28]", "IC50": 12.2}
{"smiles": "CCn1ncc2c(C(=O)N[C@@H](C)c3ccccc3)cc(-c3cccc(CN(C)CCNC)c3)nc21", "note": "[Compound 33]", "IC50": 0.0797}
{"smiles": "CNCCN(C)Cc1cccc(-c2nc(NC3CCOCC3)c3cnn(C(C)(C)C)c3n2)c1", "note": "[Compound 27, N1-(3-(1-tert-butyl-4-(tetrahydro-2H-pyran-4-ylamino)-1H-pyrazolo[3,4-d]pyrimidin-6-yl)benzyl)-N1,N2-dimethylethane-1,2-diamine]", "IC50": 0.00425}
{"smiles": "CC(C)n1ncc2c(C(=O)N[C@@H](C)c3ccccc3)cc(-c3cccc(CN(C)CCN)c3)nc21", "note": "[Compound 136]", "IC50": 0.0455}
{"smiles": "CNCCN(C)Cc1cccc(-c2cc(C(=O)N3CCc4ccccc4C3)c3cnn(C(C)C)c3n2)c1", "note": "[Compound 42]", "IC50": 0.0841}
{"smiles": "CC(C)n1ncc2c(C(=O)N3CCCCC3)cc(-c3cccc(CN(C)CCN)c3)nc21", "note": "[Compound 43]", "IC50": 0.176}
{"smiles": "CCS(=O)(=O)Nc1cc(-c2cccc(CN(C)CCNC)c2)nc2c1cnn2C(C)C", "note": "[Compound 161]", "IC50": 0.169}
{"smiles": "CNCCN(C)Cc1cccc(-c2ccc3cn(Cc4ccccc4)nc3n2)c1", "note": "[Compound 35]", "IC50": 4.96}
{"smiles": "CNCCN(C)Cc1cccc(-c2cc(NS(=O)(=O)N(C)C)c3cnn(C(C)C)c3n2)c1", "note": "[Compound 139]", "IC50": 0.0373}
{"smiles": "CNCCN(C)Cc1cccc(-c2cc(C(=O)N(C)Cc3ccccc3)c3cnn(C(C)C)c3n2)c1", "note": "[Compound 24]", "IC50": 0.0713}
{"smiles": "CNCCN(C)Cc1cccc(-c2cc(C(=O)NCC3CCOCC3)c3cnn(C4CCC4)c3n2)c1", "note": "[Compound 21]", "IC50": 0.0439}
{"smiles": "CNCCN(C)Cc1cccc(-c2cc(C(=O)NCc3cnn(C)c3C)c3cnn(C(C)C)c3n2)c1", "note": "[Compound 137]", "IC50": 0.00606}
